We go through four compounds from the NIST ThermoML archive (doi:10.1016/j.jct.2014.06.011).

± gives the expanded uncertainty stated by the source.

The nature of data set [1]: Molar enthalpy of transition or fusion. The settings on record: Crystal; DSC.
For data set [2] the following is noted: Crystal; DTA.

Consider `CCCCCCCCCCO` [decan-1-ol], for which the “Molar enthalpy of transition or fusion” value in data set [1] is 6.88 ± 0.741 kcal/mol. The Normal melting temperature in data set [2] came out at 7.2 ± 0.7 °C.

For `CCCCCCCCCC(=O)O` [decanoic acid], in data set [1], the “Molar enthalpy of transition or fusion” value amounted to 6.69 ± 0.741 kcal/mol. The Normal melting temperature in data set [2] came to 32.2 ± 0.7 °C.

Consider `CCCCCCCCO` [octan-1-ol], for which the “Molar enthalpy of transition or fusion” value in data set [1] was found to be 5.66 ± 0.717 kcal/mol. Moreover, in data set [2], the Normal melting temperature is -14.4 ± 0.7 °C.

For the compound `CCCCCCCC(=O)O` [octanoic acid], the “Molar enthalpy of transition or fusion” value in data set [1] was found to be 5.11 ± 0.717 kcal/mol. The Normal melting temperature in data set [2] amounted to 16.6 ± 0.7 °C.
